Publication PMC9814918, “Rapid optimisation of fragments and hits to lead compounds from screening of crude reaction mixtures” (Communications Chemistry, 2020)
Read-outs that look alike come from different tables or passages of the source.

Tests used:
PDHK2 [1] = target: T1, PDHK2 (Homo sapiens, UniProt Q15119); experiment: FP assay; type: binding; settings: PDHK2, purified enantiomer; read-out: Kd determined by FP assay
T1 construct: human PDHK2 (residues 16–407); His tag with TEV protease cleavage site (N, cleaved yes); made in house; host or cells: BL21 cells (E. coli)

PDHK2 [2] = target: T1, PDHK2; experiment: Soak of purified enantiomers into PDHK2 crystals; type: binding; settings: 2 days, 2 mM
Description: CRM number 11 is a racemate of two enantiomers, 23 and 24. […] A PR was obtained for all three of the soaks of CRM number 11 in the full XChem screen that selected just the higher-affinity eutomer 23.
A final concentration of 2 mM of each of the 13 CRMs and 17 pure compounds was added into crystal drops of PDHK2 in triplicate for soak-time durations of 2–4 h, O/N and 2 days at 4 °C. In addition, the final compound concentrations of 0.5 mM and 1 mM were added into PDHK2 crystal drops in triplicate, which were subsequently left to soak for 2 days also at 4 °C. Glycerol was added as a cryoprotectant (at a final concentration of 20%) by ECHO acoustic transfer shortly before mounting the crystals in cryo-cooled pucks. All data were collected on beamline I04-1 in automated mode and autoprocessed using xia2[23].

Hsp90 [3] = target: T2, Hsp90 (Homo sapiens, UniProt P07900); experiment: SPR off-rate (koff) of crude reaction mixtures and starting materials; type: binding; settings: 25 °C
T2 construct: N-terminal domain of human Hsp90α (residues 1–236); made in house; host or cells: BL21 cells (E. coli)
Description: (§1) The off-rate or koff for dissociation of each of the 83 CRMs from Hsp90 and PDHK2 was measured in duplicate by SPR and is shown in Supplementary Table 1. Failure to obtain a koff value for some CRMs (not determined, ND) was due to poor signal and was most marked for PDHK2.
(§2) Both proteins (human PDHK2 (residues 16–407) and N-terminal domain of human Hsp90α (residues 1–236)) were expressed as an N-terminal His tag fusion protein with a TEV protease cleavage in BL21 cells and purified on a Ni^2+ affinity followed by size-exclusion column, details as previously described[13],[27]. Uncleaved His-tagged variants were used in SPR experiments; tags were removed for crystallisation.
(§3) SPR experiments were conducted on T200 and T100 BIAcore instruments (GE Healthcare) at 25 °C. The His-tagged proteins were immobilised on a series of S NTA chips, and the running buffer with 10 mM HEPES, pH 7.4, 150 mM NaCl, 0.05% P-20, 0.025 mM EDTA and 1% DMSO was used. The sensor surface was regenerated between cycles to eliminate any carryover of protein and/or analyte. Details are as described previously.

PDHK2 [4] = target: T1, PDHK2; experiment: as above; type: binding
Description: as §1, §2, §3

Hsp90 [5] = target: T2, Hsp90; experiment: KD by SPR titration of purified compounds; type: binding; settings: purified product of the CRM, 25 °C, average of at least two determinations, read-out: KD (SPR) (µM) of pure
Source text: Table 3 summarises for each of the purified compounds from these nine CRMs, the results of a manual soaking of the purified compound or the CRM into Hsp90 crystals, and the measurement for the purified compounds of solubility and KD measured by both SPR titration and by isothermal titration calorimetry (ITC). […] This leaves anomalies for seven CRMs that gave SM. One of these had low solubility (CRM 75), leaving six CRMs giving SM on repeated manual soaking to explain.
as §3

Hsp90 [6] = target: T2, Hsp90; experiment: Isothermal titration calorimetry; settings: read-out: KD measured by ITC for binding to Hsp90
Description: ITC experiments were conducted at 25 °C by titration of a stock sample of 100 µM compound onto a solution of 10 µM Hsp90 in a GE ITC200 instrument.

[7] = Hsp90, SPR, CRM (SM1, SM2: starting material), read-out: koff CRM

Kd (PDHK2 [1])	crystal structure from soak of purified enantiomer into PDHK2 crystals (PDHK2 [2])	koff (Hsp90 [3]; [7])	koff (PDHK2 [4]; read-out: koff for PDHK2)	Kd (Hsp90 [5])	koff (Hsp90 [3]; SPR, CRM unpurified (SM1/SM2 head lines: starting material), duplicate, 1 given to all koff >= 1 sec-1 (limit of assay sensitivity), read-out: koff s-1 Hsp90)	koff (PDHK2 [4]; CRM unpurified (SM1/SM2 head lines: starting material), duplicate, 25 °C, 1 given to all koff >= 1 sec-1 (limit of assay sensitivity), read-out: koff s-1 PDHK2)	Kd (Hsp90 [6])	SMILES
0.14 µM	structures were obtained	–	–	–	–	–	–	COc1cc2c(cc1OC)[C@H](c1cccnc1)N(C(=O)c1ccc(O)cc1O)CC2 [Compound 23]
–	–	0.2 s⁻¹	0.083 s⁻¹	2 µM	–	–	–	CN(C(=O)c1ccc(O)cc1O)c1ccc(C(N)=O)cc1 [SM2]
17 µM	structures were obtained	–	–	–	–	–	–	COc1cc2c(cc1OC)[C@@H](c1cccnc1)N(C(=O)c1ccc(O)cc1O)CC2 [Compound 24]
–	–	> 1 s⁻¹	> 1 s⁻¹	2000 µM	≥ 1 s⁻¹	≥ 1 s⁻¹	2000 µM	NC(=O)c1ccc(O)cc1O [SM1]
